As a reminder, the MIC is the lowest concentration that inhibits growth of the organism.

Converted amounts (≈) assume the structure as drawn. Structures can show the parent of a compound that is named as a salt.

Consider six compounds from patent US9549965B2, “Pharmaceutical composition for treating a microbial infection” (HELPERBY THERAPEUTICS LIMITED, priority 2010, dated 2017).

Assay [1] deals with stationary phase S. aureus. Nature of the assay: Bactericidal activity against stationary phase S. aureus (CFU counts). It counts as cell-based, Staphylococcus aureus. The following applies: Staphylococcus aureus, read-out: Log Kill; for log reduction at 6.25 µg/mL: 6.25 μg/ml; for log reduction at 12.5 µg/mL: 12.5 μg/ml; for log reduction at 25 µg/mL: 25 μg/ml. The procedure:
Staphylococcus aureus (Oxford strain); Gram positive; Reference strain.
(§1) Bacteria were grown in 10 ml of nutrient broth (No. 2 (Oxoid)) overnight at 37° C., with continuous shaking at 120 rpm. The overnight cultures were diluted (1000×) in 100 ml of growth medium and then incubated without shaking for 10 days. Viability of the bacteria was estimated by colony forming unit (CFU) counts at 2 hour intervals at the first 24 hours and at 12-24 hours afterwards. From serial 10-fold dilutions of the experimental cultures, 100 μl samples were added to triplicate plates of nutrient agar plates (Oxoid) and blood agar plates (Oxoid). Colony forming units (CFU) were counted after incubation of the plates at 37° C. for 24 hours.
(§2) Cultures incubated for more than 24 hours are in the stationary phase. For drug screening, 5-6 day old stationary phase cultures were used.
(§3) Different concentrations of each test compound were incubated with stationary phase cultures (5-6 day cultures) in 96 well plates for 24 or 48 hours. Bactericidal activity was then determined by taking CFU counts of the resulting cultures, as described above.

The next assay deals with stationary phase E. coli. Nature of the assay: Bactericidal activity against stationary phase E. coli (CFU counts). It counts as cell-based, Escherichia coli. To be noted: Escherichia coli, read-out: Log kill; for log reduction at 6.25 µg/mL: 6.25 μg/ml; for log reduction at 12.5 µg/mL: 12.50 μg/ml; for log reduction at 25 µg/mL: 25.00 μg/ml. The method, then:
(§4) Escherichia coli K12; Gram negative; Reference strain.
as §1, §2, §3

The next assay has as its system log phase E. coli. Put plainly: MIC against log phase E. coli. It counts as cell-based, Escherichia coli. To be noted: Escherichia coli, read-out: MIC. The method, then:
as §4
The above-described overnight cultures were diluted (1000×) with iso-sensitest broth. The cultures were then incubated at 37° C. with shaking for 1-2 hours to reach log CFU 6, which served as log phase cultures.
The bactericidal activity of the drugs against log phase cultures were determined by minimal inhibitory concentration (MIC) of the drugs, which is defined as the lowest concentration which inhibits visible growth. Different concentrations of each test compound were incubated with the log-phase cultures in 96 well plates for 24 hours. Bactericidal activity was then examined by taking a spectrophotometer reading (using a plate reader) at 405 nm.

For assay [2], the system named is stationary phase P. aeruginosa. Put plainly: Bactericidal activity against stationary phase P. aeruginosa. In kind it is cell-based, Pseudomonas aeruginosa. To be noted: for activity against stationary phase P. aeruginosa: FIG. 1. The method, then: as §1, with “Pseudomonas aeruginosa NCTC 6751; Gram negative; Reference strain. Bacteria” for “Bacteria”, “hours. Cultures incubated for more than 24 hours are in the stationary phase. For drug screening, 5-6 day old stationary phase cultures were used. Different concentrations of each test compound were incubated with stationary phase cultures (5-6 day cultures) in 96 well plates for 24 or 48 hours. Bactericidal activity was then determined by taking CFU counts of the resulting cultures, as described above.” for “hours.”

The test system of the next assay is persistent E. coli. Nature of the assay: Bactericidal activity against persistent E. coli selected by gentamicin. It counts as cell-based, Escherichia coli. To be noted: Escherichia coli, read-out: Log Kill; for log reduction at 6.25 µg/mL: 6.25 μg/ml; for log reduction at 12.5 µg/mL: 12.5 μg/ml; for log reduction at 25 µg/mL: 25 μg/ml. The method, then: as §4
An antibiotic (gentamicin) was added to 5-6 day stationary-phase cultures to the final concentration of 50 to 100 μg/ml for 24 hours. After 24 hours of antibiotic treatment, the cells are washed 3 times with phosphate buffered saline (PBS), and then resuspended in PBS. The surviving bacterial cells are used as persisters. Viability is estimated by CFU counts. The persisters were then used in measurements of bactericidal activity for test compounds.
Different concentrations of each test compound were incubated with the (persister) cell suspension in 96 well plates for various periods of time (24 and 48 hours). Bactericidal activity was then determined by taking CFU counts of the resulting cultures, as described above.

The test system of assay [3] is NDM-1 Klebsiella pneumoniae. Put plainly: Chequerboard analysis with colistin against NDM-1 Klebsiella pneumoniae. In kind it is cell-based.
Assay [4] deals with clinically latent microorganisms. Nature of the assay: Screening for ability to kill clinically latent microorganisms (method of WO2000028074). In kind it is cell-based. The text has this: International Patent Application, Publication Number WO2000028074 describes a method of screening compounds to determine their ability to kill clinically latent microorganisms. […] This observation has necessitated the development of novel antimicrobials which may be used to kill clinically latent microorganisms.
By way of example, WO2000028074 describes a suitable method of screening compounds to determine their ability to kill clinically latent microorganisms. A typical method may include the following steps: • (1) growing a bacterial culture to stationary phase; • (2) treating the stationary phase culture with one or more antimicrobial agents at a concentration and or time sufficient to kill growing bacteria, thereby selecting a phenotypically resistant sub-population; • (3) incubating a sample of the phenotypically resistant subpopulation with one or more test compounds or agents; and • (4) assessing any antimicrobial effects against the phenotypically resistant subpopulation.

Regarding `OC(c1cc(C(F)(F)F)nc2c(C(F)(F)F)cccc12)C1CCCCN1` (stereo not shown) [Mefloquine], the log reduction at 6.25 µg/mL in assay [1] was -0.01; in the assay on stationary phase E. coli it was 2.48; with persistent E. coli, 0.02. Besides, the log reduction at 12.5 µg/mL in assay [1] is 6.03; in the assay on stationary phase E. coli, 6.14; in the assay with persistent E. coli, 0.03. Further, the log reduction at 25 µg/mL in assay [1] is 6.03; in the assay with stationary phase E. coli, 6.14; in the assay on persistent E. coli, 6.21. For the same compound, the minimal inhibitory concentration (MIC) in the assay with log phase E. coli turned out to be 10 mg/L (≈ 26.4 µM). Also, the “log reduction of the bacterium” value in assay [2] (40 μg/ml) is “about 1.5 log”. Further, the organism removed entry in assay [2] (80 μg/ml) is recorded as “more than 10^7”. For the same compound, the “activity against stationary phase P. aeruginosa” value in assay [2] was “active”. The spectrophotometer reading in assay [3] (mefloquine 0.25 mg/L alone) is on record as 1.10; in assay [3] (mefloquine 0.5 mg/L alone), 1.08; in assay [3] (mefloquine 1 mg/L alone) it was 1.10; in assay [3] (mefloquine 2 mg/L alone), 1.09; in assay [3] (mefloquine 4 mg/L alone) it was 1.09; in assay [3] (mefloquine 8 mg/L alone), 1.15. The spectrophotometer reading in assay [3] (mefloquine 16 mg/L alone) is reported as 1.10; in assay [3] (mefloquine 32 mg/L alone), 0.82; in assay [3] (mefloquine 64 mg/L alone), 0.60; in assay [3] (mefloquine 128 mg/L alone), 0.33; in assay [3] (mefloquine 256 mg/L alone), 0.34.

Take `CCCCCCCCNC(C)C(O)c1ccc(SC(C)C)cc1` (stereo not shown) [Suloctidil]: the log reduction at 6.25 µg/mL turned out to be 6.03 in assay [1] and 0.02 in the assay on persistent E. coli. Further, the log reduction at 12.5 µg/mL was 6.03 in assay [1] and 0.02 in the assay on persistent E. coli. The log reduction at 25 µg/mL came to 6.03 in assay [1] and 6.21 in the assay on persistent E. coli. Further, the MIC with log phase E. coli came to 10 mg/L (≈ 29.6 µM). Besides, in assay [2], the “activity against stationary phase P. aeruginosa” value is “no observable activity”. Also, the spectrophotometer reading stood at 0.97 in assay [3] (suloctidil 0.25 mg/L alone); 1.03 in assay [3] (suloctidil 0.5 mg/L alone); 0.98 in assay [3] (suloctidil 1 mg/L alone); 0.93 in assay [3] (suloctidil 2 mg/L alone); 0.94 in assay [3] (suloctidil 4 mg/L alone); 0.70 in assay [3] (suloctidil 8 mg/L alone). Besides, the spectrophotometer reading in assay [3] (suloctidil 16 mg/L alone) stood at 0.60; in assay [3] (suloctidil 32 mg/L alone), 0.60; in assay [3] (suloctidil 64 mg/L alone), 0.38; in assay [3] (suloctidil 128 mg/L alone) it was 0.44; in assay [3] (suloctidil 256 mg/L alone), 0.61.

For the compound `CN(C)CCCN1c2ccccc2Sc2ccc(C(F)(F)F)cc21` [Triflupromazine hydrochloride], the figures for the log reduction at 6.25 µg/mL (in assay [1]; in the assay with stationary phase E. coli; in the assay with persistent E. coli) were 6.15, 2.1 and 0.03, respectively. Besides, the results for the log reduction at 12.5 µg/mL (in assay [1]; in the assay with stationary phase E. coli; in the assay on persistent E. coli) were 6.15, 6.14 and 2.34, respectively. Further, the log reduction at 25 µg/mL in assay [1] amounted to 6.15; in the assay on stationary phase E. coli, 6.14; in the assay on persistent E. coli, 6.21. Moreover, the MIC with log phase E. coli is 10 mg/L. In addition, the spectrophotometer reading in assay [3] (triflupromazine 0.25 mg/L alone) turned out to be 1.11; in assay [3] (triflupromazine 0.5 mg/L alone), 1.13; in assay [3] (triflupromazine 1 mg/L alone), 1.14; in assay [3] (triflupromazine 2 mg/L alone) it was 1.13; in assay [3] (triflupromazine 4 mg/L alone), 1.14; in assay [3] (triflupromazine 8 mg/L alone), 1.17. Further, the spectrophotometer reading in assay [3] (triflupromazine 16 mg/L alone) was found to be 1.11; in assay [3] (triflupromazine 32 mg/L alone) it was 1.08; in assay [3] (triflupromazine 64 mg/L alone), 0.73; in assay [3] (triflupromazine 128 mg/L alone) it was 0.76; in assay [3] (triflupromazine 256 mg/L alone) it was 0.41.

For `CC[C@H]1OC(=O)[C@H](C)[C@@H](O[C@H]2C[C@@](C)(OC)[C@@H](O)[C@H](C)O2)[C@H](C)[C@@H](O[C@@H]2O[C@H](C)C[C@H](N(C)C)[C@H]2O)[C@](C)(O)C[C@@H](C)CN(C)[C@H](C)[C@@H](O)[C@]1(C)O` [azithromycin], the “activity against clinically latent microorganisms” value in assay [4] is reported as “little or no activity”.

As for `CC(=O)NC[C@H]1CN(c2ccc(N3CCOCC3)c(F)c2)C(=O)O1` [linezolid], the “activity against clinically latent microorganisms” value in assay [4] is on record as “little or no activity”.

On to `C/C(=C\C(=O)OCCCCCCCCC(=O)O)C[C@@H]1OC[C@H](C[C@@H]2O[C@H]2[C@@H](C)[C@H](C)O)[C@@H](O)[C@H]1O` [mupirocin], for which the “activity against clinically latent microorganisms” value in assay [4] is “little or no activity”.
